Consider seven compounds from PubChem BioAssay (NCI).

What all share (experiment): NCI-60 cell line screen, 48 h
Test [1] has as its system SF-295 CNS.
Test [2] deals with LOX IMVI melanoma.
For test [3], the system named is PC-3 prostate.
Test [4] has as its system SF-539 CNS.
Test [5] has as its system U251 CNS.
Test [6] has as its system OVCAR-5 ovarian.
In test [7] the test system is HCT-116 colon.
Test [8] relates to HOP-92 NSCLC.
For test [9], the system named is NCI-H226 lung.
In test [10] the test system is UACC-257 melanoma.

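Interpolation was linear, between the two tested concentrations surrounding the appropriate level; five concentrations were tested over 48 hours in 96-well plates. The concentration for 50% growth inhibition is given as GI50. TGI denotes the concentration required for complete inhibition of growth.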

For `NC(=O)c1ccc(Oc2nccc(-c3c(-c4ccc(F)cc4)ncn3C3CCNCC3)n2)cc1`, the GI50 in [1], in test [2], in test [3], in test [4], in test [5] and in [6] was more than 25 µM in each case. Also, the GI50 in [7], in [8], in [9] and in test [10] was more than 25 µM in each case. Further, the TGI in [1], in [2], in [3], in test [4], in test [5] and in test [6] was more than 25 µM in each case. Also, the TGI in [7], in [8], in test [9] and in test [10] was more than 25 µM each time.
As for `O=C(NCCCc1cn[nH]c1)c1ccc(-c2ccncc2)c(C#Cc2ccc(F)cc2)c1`, the TGI was 47.9 µM in test [1]; 53.6 µM in test [2]; 76.8 µM in [3]; 14.5 µM in test [4]; more than 100 µM in [5]; more than 100 µM in [6]. In addition, the TGI in test [7] was 15.2 µM; in test [8], 87 µM; in [9], 51.3 µM; in test [10] it was more than 100 µM. Besides, the GI50 in test [2] is 0.913 µM; in test [3] it was less than 0.01 µM; in test [4], less than 0.01 µM; in test [5], 0.243 µM; in [6], 0.122 µM; in [7], less than 0.01 µM. Further, the figures for the GI50 in test [8], in test [9] and in [10] were 12.7 µM, 6.2 µM and 17.6 µM, respectively.
Consider `C#C[C@@]1(O)[C@@H](CO)O[C@@H](n2cc(I)c3c(N)ncnc32)[C@@H]1O`, for which the GI50 in test [1] is 0.432 µM; in [2], 0.0812 µM; in [3], 0.0756 µM; in [4], 0.378 µM; in [5], 0.0734 µM; in [6], 0.933 µM. Also, the GI50 is 0.0434 µM in test [7], 0.0736 µM in [8], 1.72 µM in [9] and 2.33 µM in test [10]. The TGI in [1] is 3.77 µM; in test [2], 1.22 µM; in test [3], more than 38.1 µM; in [4], 2.55 µM; in test [5], more than 32 µM; in test [6], more than 100 µM. Moreover, the TGI in test [7] is more than 100 µM; in test [8], 2.22 µM; in test [9], more than 100 µM; in test [10], 27.8 µM.
With `Cc1c(C#N)cccc1[C@@H](C)Nc1nnc(C)c2cnc(N3CCOCC3)cc12`, the GI50 was 21.9 µM in test [1]; 27.5 µM in [2]; 27.8 µM in test [3]; 43.1 µM in [4]; 29.8 µM in test [5]; 42.2 µM in test [6]. The GI50 in test [7] is 32.7 µM; in test [8], 0.175 µM; in test [9], 23.2 µM; in [10], 26.4 µM. Besides, the TGI in [1], in test [2], in test [3], in [4], in test [5] and in [6] was more than 100 µM in each case. For the same compound, the TGI in test [7] was more than 100 µM; in [8], 13.1 µM; in test [9], more than 100 µM; in test [10] it was 94.5 µM.
`CC/C(Cc1ccccc1)=C(\c1ccc(OCCN2CCCC2)cc1)c1ccc(OC(=O)NCc2ccccc2)cc1`: the GI50 is 1.7 µM in test [1]; 1.71 µM in test [2]; 1.86 µM in test [3]; 1.7 µM in test [4]; 1.77 µM in test [5]; 1.93 µM in test [6]. The GI50 in [7] is 1.64 µM; in test [8], 1.58 µM; in test [9], 3.52 µM; in [10], 1.91 µM. In addition, the TGI in test [1] was found to be 3.14 µM; in test [2] it was 3.1 µM; in [3], 3.55 µM; in [4], 3.09 µM; in test [5], 3.17 µM; in test [6], 4.65 µM. Further, the TGI in test [7] was 3 µM; in test [8], 3.19 µM; in test [9], 14.2 µM; in [10], 3.81 µM.
For `O=C(/C=C/C=C/c1ccccc1)c1ccco1`, the GI50 was 13.2 µM in [1]; 13.7 µM in test [2]; 16.4 µM in test [3]; 17.1 µM in test [4]; 12.4 µM in test [5]; 18.4 µM in [6]. Further, the GI50 is 12.2 µM in test [7], 7.96 µM in test [8], 20.7 µM in test [9] and 21.8 µM in test [10]. Besides, the TGI in test [1] amounted to 34.6 µM; in [2], 27.9 µM; in test [3], 53 µM; in test [4], 31.5 µM; in test [5], 24.9 µM; in [6], 33.3 µM. Further, the TGI in [7] amounted to 25.1 µM; in [8], 43.7 µM; in [9] it was 50.2 µM; in [10], 60.7 µM.
Consider `Cc1ccc([N+](=O)[O-])c2c(NCCNC(=O)c3cc(C(=O)NCCNc4ccnc5c(C)ccc([N+](=O)[O-])c45)n(C)n3)ccnc12`, for which the TGI is more than 100 µM in test [1]; more than 64.7 µM in test [2]; more than 100 µM in test [3]; more than 100 µM in test [4]; more than 100 µM in [5]; more than 100 µM in [6]. The TGI in test [7], in test [8], in test [9] and in test [10] was more than 100 µM each time.
